Results on 43 compounds are retold here after the Deep4Chem optical property database.

The data set is described as follows: solvent given as SMILES.
Where [1] appears, read: in c1ccc2c(c1)c1ccccc1n2-c1ccc(-c2ccc(-n3c4ccccc4c4ccccc43)cc2)cc1.

In turn, `Nc1ncnc2c1c(-c1ccc3ccccc3c1)nn2[C@H]1C[C@H](O)[C@@H](CO)O1` showed an emission maximum (in C1COCCO1) of 359 nm; an emission maximum (in CC#N) of 360 nm; an emission maximum (in CC(C)O) of 363 nm; an emission maximum (in CCO) of 364 nm; an emission maximum (in CCOC(C)=O) of 358 nm; an emission maximum (in CN(C)C=O) of 361 nm. The emission maximum was determined as 362 nm (in CO), 363 nm (in CS(C)=O), 372 nm (in OCC(O)CO) and 365 nm (in OCCO).
As for `c1ccc(C2=C(c3ccccc3)c3cccc4c3c(cc3nc5cc(-c6ccccc6)c(-c6ccccc6)cc5nc34)O2)cc1`, the emission maximum (in ClCCl) was 559 nm.
With `N#Cc1c(-n2c3ccc(-c4ccccc4)cc3c3cc(-c4ccccc4)ccc32)c(-n2c3ccc(-c4ccccc4)cc3c3cc(-c4ccccc4)ccc32)c(C#N)c(-n2c3ccc(-c4ccccc4)cc3c3cc(-c4ccccc4)ccc32)c1-n1c2ccc(-c3ccccc3)cc2c2cc(-c3ccccc3)ccc21`, under “in Cc1ccccc1”, the emission maximum is on record as 577 nm.
`O=c1cc(C(F)(F)F)c2cc3c4c(c2o1)CCCN4CCC3` displayed an emission maximum (in C1CCCCC1) of 455 nm; an emission maximum (in CC#N) of 521 nm; an emission maximum (in CCO) of 531 nm; an emission maximum (in CCOC(C)=O) of 501 nm; an emission maximum (in OCC(O)CO) of 546 nm.
In turn, `c1ccc2c(c1)c1ccccc1c1ncncc21` returned an emission maximum (in ClCCl) of 368 nm.
In turn, `COc1cc(C2=c3c(c4ccc(C(C)(C)C)cc4c4cc(C(C)(C)C)ccc34)=[N+]3C2=Nc2c(-c4cc(OC)c(OC)c(OC)c4)c4c5ccc(C(C)(C)C)cc5c5cc(C(C)(C)C)ccc5c4n2[B-]3(F)F)cc(OC)c1OC` yielded an emission maximum (in Cc1ccccc1) of 816 nm.
Turning to `F[B-]1(F)n2c(Oc3ccccc3)c(Cl)c(Br)c2C(Oc2ccccc2)=C2C(Br)=C(Cl)C(Oc3ccccc3)=[N+]21`, the emission maximum (in ClCCl) came to 544 nm.
On the same count and under the same terms, next, `N#C/C(=C\c1ccc(-c2ccncc2)cc1)c1ccc(-c2ccncc2)cc1`: 460 nm.
In the case of `c1ccc(-c2nc(-c3ccc(-c4ccc(-c5ccc(-c6nc(-c7ccccc7)c(-c7ccccc7)o6)cc5)cc4)cc3)oc2-c2ccccc2)cc1`, the emission maximum (in C1COCCO1) was 426 nm.
`Oc1ccc(-c2nc(-c3ccccc3)c(-c3ccccc3)[nH]2)cc1`: the emission maximum (in CO) is 400 nm.
Turning to `COC(=O)c1[nH]c(-c2ccc(OC)cc2)c2nnc3ccc(OC)cc3c12`, under “in ClCCl”, the emission maximum was determined as 504 nm.
In turn, `CC[n+]1c(-c2ccccc2)c2cc(-n3cccc3)ccc2c2ccc(-n3cccc3)cc21` had an emission maximum (in O) of 502 nm.
Compound `CCC1=C(C)C2=C(/C=C/c3ccc([N+](=O)[O-])cc3)c3c(C)c(CC)c(C)n3[B-](F)(F)[N+]2=C1C` gave an emission maximum (in ClCCl) of 532 nm.
`CC[N+]1(CC)CN2C(=N1)C(C(=O)O)=Cc1c2ccc2ccccc12` had an emission maximum (in O) of 487 nm.
As to `O=C(O)CCCCCn1c2ccc(Br)cc2c(=O)c2cc(S(=O)(=O)O)ccc21`, under “in O”, the emission maximum is given as 435 nm.
In the case of `N#Cc1cc(/C=C/c2ccc(N(c3ccccc3)c3ccccc3)cc2)ccc1-c1ccc(/C=C/c2ccc(N(c3ccccc3)c3ccccc3)cc2)cc1C#N`, the emission maximum (in ClCCl) was 472 nm.
On to `CN(C)c1ccc(/C=C/c2cccnn2)cc1`, for which the emission maximum amounted to 476 nm (in C1CCOC1); 509 nm (in CC#N); 459 nm (in CCCCCCC); 518 nm (in CS(C)=O); 480 nm (in ClCCl).
For `CCC1=C(C)C2=Cc3c4ccccc4c4n3[B-](c3ccc5ccc6cccc7ccc3c5c67)(Oc3ccccc3-4)[N+]2=C1C` (stereo not given), the emission maximum (in CC#N) amounted to 635 nm, the emission maximum (in CCCCCC) is reported as 638 nm, the emission maximum (in Cc1ccccc1) is recorded as 642 nm and the emission maximum (in ClCCl) is recorded as 640 nm.
`CCCCCCOc1cc(/C=C/c2cc(OCCCCCC)c(/C=C/c3cc(OCCCCCC)c(C=O)cc3OCCCCCC)cc2OCCCCCC)c(OCCCCCC)cc1C=O` returned an emission maximum (in ClCCl) of 521 nm.
`CCCC1(CCC)c2ccccc2-c2ccc(-c3ccc(C(C)(C)C)cc3)cc21` showed an emission maximum (in C1CCCCC1) of 314 nm.
On to `CC1(C)c2ccccc2N(c2ccccc2)c2ccc(-c3ccc(-c4ccc5c(c4)C(C)(C)c4ccccc4N5c4ccccc4)c4nsnc34)cc21`, for which the emission maximum by setting is: (in Cc1ccccc1) 596.02 nm; under setting [1], 588 nm.
On to `CC1=CC(c2ccc3cc(N(C)C)ccc3c2)=[O+][B-](F)(F)O1`, for which the emission maximum was determined as 566 nm (in C1CCOC1); 611 nm (in CC#N); 492 nm (in CC(C)=O); 624 nm (in CS(C)=O); 521 nm (in Cc1ccccc1); 552 nm (in ClC(Cl)Cl). This compound returned an emission maximum (in ClCCl) of 574 nm.
Turning to `O=c1[nH]c(=O)c2nc3ccccc3nc2[nH]1`, the emission maximum (in CC#N) is listed as 432 nm.
With `CC[n+]1c(C=C2C(=O)C(C=C3N(C)c4ccccc4C3(C)C)=C2[O-])[se]c2ccccc21`, the emission maximum (in CO) was 661 nm and the emission maximum (in ClC(Cl)Cl) came out at 675 nm.
Compound `CCCCC(CC)COc1ccc2nc(-c3ccc(-c4cccs4)s3)sc2c1` (stereo not given) came in with an emission maximum (in ClCCl) of 438 nm.
As to `CCCCCCCCCCn1nnc(-c2ccc(C#Cc3ccc(C#Cc4ccc(-c5nnn(CCCCCCCCCC)n5)cc4)c4nc5c6ccccc6c6ccccc6c5nc34)cc2)n1`, the emission maximum (in C1CCOC1) amounted to 495 nm, the emission maximum (in Cc1ccccc1) is on record as 488 nm and the emission maximum (in ClCCl) was found to be 502 nm.
On to `COc1ccc(/C=N/c2cc(C(C)C)c(O)cc2C)cc1`, for which the emission maximum is, setting by setting: (in C1CCCCC1) 404 nm; (in C1CCOC1) 408 nm; (in C1COCCO1) 407 nm; (in CC#N) 411 nm; (in CC(C)(C)O) 411 nm; (in CC(C)O) 413 nm. This compound also showed an emission maximum (in CCCCCC) of 401 nm; an emission maximum (in CCCCO) of 414 nm; an emission maximum (in CCO) of 414 nm; an emission maximum (in CCOC(C)=O) of 407 nm; an emission maximum (in CN(C)C=O) of 413 nm; an emission maximum (in CO) of 417 nm. Moreover, the emission maximum reads like this: (in CS(C)=O) 417 nm; (in ClC(Cl)Cl) 413 nm; (in ClCCl) 413 nm; (in O) 440 nm; (in OCCO) 426 nm.
For the setting “in ClCCl”, `[O-][n+]1c(/C=C/c2ccc3ccccc3c2)nc(N2CCOCC2)c2c1CCCC2` displayed an emission maximum of 546 nm.
Consider `Cc1cc(O)c(C(C)C)cc1/N=C/c1ccc(C(F)(F)F)cc1`, for which the emission maximum reads like this: (in C1CCCCC1) 398 nm; (in C1CCOC1) 426 nm; (in C1COCCO1) 424 nm; (in CC#N) 425 nm; (in CC(C)(C)O) 431 nm; (in CC(C)O) 434 nm. Also, the emission maximum reads like this: (in CCCCCC) 401 nm; (in CCCCO) 436 nm; (in CCO) 429 nm; (in CCOC(C)=O) 421 nm; (in CN(C)C=O) 434 nm; (in CO) 434 nm. The emission maximum worked out at 439 nm (in CS(C)=O); 430 nm (in ClC(Cl)Cl); 424 nm (in ClCCl); 449 nm (in O); 438 nm (in OCCO).
In the case of `N#Cc1cccc(N)c1`, the emission maximum is given as 343 nm (in C1CCCCC1); 369.45 nm (in CC#N); 339.87 nm (in CCCCCC); 384 nm (in CCO); 392 nm (in O); 380 nm (in OCC(F)(F)F).
Take `CN(C)c1ccc(C2=[N+]3C(=Nc4c(-c5ccccc5)cc(-c5ccc(N(C)C)cc5)n4[B-]3(F)F)C(c3ccccc3)=C2)cc1`: the emission maximum (in ClC(Cl)Cl) is on record as 823 nm.
Same read-out and setting: next, `O=Cc1ccc(C#CC(C#Cc2ccc(C=O)o2)=Cc2ccc(C=C(C#Cc3ccc(C=O)o3)C#Cc3ccc(C=O)o3)cc2)o1`: 518 nm.
For `C(=C\c1cccnc1)/c1ccc(N(c2ccccc2)c2ccccc2)cc1`, the emission maximum by setting is: (in CC#N) 476 nm; (in CCCCCC) 403 nm.
With `c1ccc(C2(c3ccccc3)c3ccc4ccc5ccccc5c4c3-c3c2ccc2ccc4ccccc4c32)cc1`, the emission maximum (in ClCCl) amounted to 421 nm.
Turning to `COc1ccc2n1[B-](F)(F)[N+]1=C(SC#N)C=CC1=C2c1ccccc1`, the emission maximum reads like this: (in CC#N) 527 nm; (in CCCCCC) 532 nm; (in CCOC(C)=O) 529 nm; (in CO) 526 nm; (in ClCCl) 531 nm.
Consider `O=C1c2ccc(N(c3ccc(-c4ccccc4)cc3)c3ccc(-c4ccccc4)cc3)cc2C(=O)c2ccc(N(c3ccc(-c4ccccc4)cc3)c3ccc(-c4ccccc4)cc3)cc21`, for which the emission maximum is reported as 629 nm (in Cc1ccccc1) and 603 nm under setting [1].
As for `Cc1ccccc1C`, where the note is “in C1CCCCC1”, the emission maximum is recorded as 291.38 nm.
Where the note is “in CC#N”, `c1ccc(C[n+]2cc3ccc4c[n+](Cc5ccccc5)cc5ccc(c2)c3c45)cc1` yielded an emission maximum of 427 nm.
For the compound `CCCCCCN(CCCCCC)c1ccc(C#Cc2ccc([N+](=O)[O-])cc2)cc1`, the emission maximum (in CO) was 630 nm and the emission maximum (in ClCCl) is given as 618 nm.
Consider `COc1ccc2c(c1)N(c1ccc(C)cc1)c1cc3c(cc1=N2)Oc1c(cc(C(C)(C)C)cc1C(C)(C)C)N=3`, for which the emission maximum was determined as 625 nm (in CC#N), 586 nm (in CCCCCC) and 635 nm (in CO).
For the compound `CC[n+]1nc2cc3c4c(c2c2cc(F)ccc21)CCCN4CCC3`, the emission maximum (in O) was found to be 564 nm.
Under “in ClCCl”, `CCCc1cc2c(s1)-c1cc3c(cc1NB2c1ccccc1)-c1sc(CCC)cc1B(c1ccccc1)N3` had an emission maximum of 418 nm.
Regarding `CC1(C)c2ccccc2N(c2ccc3c(c2)S(=O)(=O)c2cc(N4c5ccccc5C(C)(C)c5ccccc54)ccc2C3(C)C)c2ccccc21`, the emission maximum is on record as 466.12 nm (in Cc1ccccc1) and 506 nm (in ClCCl).
